Experimental findings from PubChem BioAssay (NCI) are described below.

Among the test systems are OVCAR-5 ovarian; NCI-H522 lung; UACC-257 melanoma; PC-3 prostate; SK-MEL-5 melanoma; SK-MEL-28 melanoma; A498 renal; 786-0 renal; MOLT-4 leukemia; HT29 colon.
What all share (experiment): inhibition of tumour cell growth, NCI panel, 48 h

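Values below derive from 48-hour exposures of cells grown in 96-well plates, with endpoints linearly interpolated between the two concentrations bracketing the appropriate inhibition level. Abbreviation: GI50, concentration required for 50% inhibition of growth. TGI: total growth inhibition.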

Consider `O=C1OC(c2ccco2)=N/C1=C\c1cccc([N+](=O)[O-])c1`, for which the TGI with OVCAR-5 ovarian, in the assay with NCI-H522 lung, with UACC-257 melanoma, in the assay on PC-3 prostate, in the assay on SK-MEL-5 melanoma and with SK-MEL-28 melanoma was more than 100 µM each time. The TGI in the assay with A498 renal, in the assay with 786-0 renal, with MOLT-4 leukemia and in the assay on HT29 colon was more than 100 µM each time.
Turning to `C/C(=N\Nc1ccc(Cl)cn1)c1ccccn1`, the GI50 in the assay on OVCAR-5 ovarian is 0.225 µM; in the assay with NCI-H522 lung it was 0.039 µM; in the assay on UACC-257 melanoma, 0.117 µM; with PC-3 prostate, 0.0464 µM; with SK-MEL-5 melanoma, 0.343 µM; in the assay with SK-MEL-28 melanoma it was 0.25 µM. Moreover, the GI50 in the assay on A498 renal was 0.174 µM; with 786-0 renal, 0.206 µM; in the assay with MOLT-4 leukemia, 0.026 µM; in the assay with HT29 colon, less than 0.0419 µM. Also, the TGI was more than 100 µM in the assay with OVCAR-5 ovarian; 9.99 µM with NCI-H522 lung; more than 100 µM with PC-3 prostate; 5.48 µM with SK-MEL-5 melanoma; more than 100 µM with SK-MEL-28 melanoma; 1.05 µM in the assay with A498 renal. Moreover, the TGI is more than 33.9 µM in the assay on 786-0 renal, more than 42 µM with MOLT-4 leukemia and more than 59.9 µM in the assay with HT29 colon.
`Cc1ccc(C(=O)Nc2ccc(CN3CCN(C)CC3)c(C(F)(F)F)c2)cc1C#Cc1cnc(N)c2ccccc12`: the GI50 was 0.609 µM with OVCAR-5 ovarian; 0.465 µM with NCI-H522 lung; 0.736 µM in the assay with UACC-257 melanoma; 0.703 µM with PC-3 prostate; 0.835 µM with SK-MEL-5 melanoma; 0.479 µM in the assay with SK-MEL-28 melanoma. For the same molecule, the GI50 in the assay with A498 renal is 0.31 µM; with 786-0 renal, 0.435 µM; with MOLT-4 leukemia, 0.224 µM; in the assay on HT29 colon, 0.367 µM. In addition, the TGI is 1.5 µM in the assay with OVCAR-5 ovarian; 1.36 µM with NCI-H522 lung; 1.73 µM in the assay on UACC-257 melanoma; 1.72 µM in the assay with PC-3 prostate; 1.62 µM in the assay with SK-MEL-5 melanoma; 1.15 µM with SK-MEL-28 melanoma. Further, the TGI with A498 renal is 1.3 µM; in the assay on 786-0 renal, 1.08 µM; in the assay with MOLT-4 leukemia, 1.28 µM; with HT29 colon, 1.41 µM.
In the case of `CO[C@H]1C=C[C@@]23c4cc5c(cc4CO[C@]2(O)CN(C)[C@H]3C1)OCO5`, the TGI in the assay with OVCAR-5 ovarian, in the assay on NCI-H522 lung, with UACC-257 melanoma, with PC-3 prostate, in the assay on SK-MEL-5 melanoma and with SK-MEL-28 melanoma was more than 100 µM throughout. The TGI with A498 renal, in the assay on 786-0 renal, with MOLT-4 leukemia and in the assay with HT29 colon was more than 100 µM throughout.
Turning to `Nc1ncn(C2CC(O)C(CO)O2)c(=O)n1` (centres undefined), the TGI was more than 375 µM in the assay with OVCAR-5 ovarian; 218 µM with NCI-H522 lung; 131 µM with UACC-257 melanoma; more than 204 µM in the assay on PC-3 prostate; 254 µM in the assay on SK-MEL-5 melanoma; more than 324 µM with SK-MEL-28 melanoma. Moreover, the TGI is more than 332 µM in the assay with A498 renal, more than 256 µM in the assay on 786-0 renal, more than 375 µM in the assay on MOLT-4 leukemia and more than 375 µM with HT29 colon.
As for `c1cc2c(ncc3cscc32)s1`, the TGI in the assay with OVCAR-5 ovarian, in the assay on NCI-H522 lung, with UACC-257 melanoma, with PC-3 prostate, in the assay with SK-MEL-5 melanoma and in the assay on SK-MEL-28 melanoma was more than 100 µM throughout. The TGI with A498 renal, in the assay with 786-0 renal, with MOLT-4 leukemia and with HT29 colon was more than 100 µM throughout.
For the molecule `Cc1ccc(NC(=O)c2sc3nc(C)c(C(O)c4ccccc4)cc3c2N)cc1` (centres undefined), the GI50 was 0.698 µM in the assay with OVCAR-5 ovarian; 0.617 µM in the assay with NCI-H522 lung; 4.09 µM in the assay with UACC-257 melanoma; 0.429 µM in the assay with PC-3 prostate; 0.417 µM in the assay on SK-MEL-5 melanoma; 0.772 µM with SK-MEL-28 melanoma. For the same molecule, the GI50 in the assay on A498 renal is 0.233 µM; with 786-0 renal, 1.02 µM; in the assay with MOLT-4 leukemia, 0.643 µM; in the assay on HT29 colon, 0.358 µM. Besides, the TGI in the assay on OVCAR-5 ovarian was 24.1 µM; with NCI-H522 lung it was more than 48.7 µM; in the assay with UACC-257 melanoma, more than 100 µM; with PC-3 prostate, 20.7 µM; in the assay on SK-MEL-5 melanoma, more than 41.8 µM; with SK-MEL-28 melanoma, more than 100 µM. Further, the TGI is 1.04 µM in the assay with A498 renal, 18.8 µM with 786-0 renal, more than 100 µM with MOLT-4 leukemia and 14.8 µM in the assay on HT29 colon.
Turning to `Cc1nc(-c2ccccc2)c(-c2ccccc2)s1`, the TGI in the assay with OVCAR-5 ovarian was more than 100 µM; in the assay on NCI-H522 lung, 37.7 µM; in the assay with UACC-257 melanoma it was 79.9 µM; with PC-3 prostate it was 47.1 µM; in the assay on SK-MEL-5 melanoma it was 27.5 µM; in the assay on SK-MEL-28 melanoma, more than 100 µM. In addition, the TGI in the assay on A498 renal came out at 64.4 µM; in the assay with 786-0 renal, 50.8 µM; with MOLT-4 leukemia it was 38.8 µM; in the assay on HT29 colon, 41.7 µM.
As to `Cn1cnc([N+](=O)[O-])c1[Se]c1nc(N)nc2c1ncn2C1OC(CO)C(O)C1O` (centres undefined), the TGI in the assay with OVCAR-5 ovarian, in the assay with NCI-H522 lung, with UACC-257 melanoma, in the assay on PC-3 prostate, in the assay with SK-MEL-5 melanoma and in the assay with SK-MEL-28 melanoma was more than 100 µM each time. In addition, the TGI in the assay on A498 renal, with 786-0 renal, in the assay on MOLT-4 leukemia and with HT29 colon was more than 100 µM in each case.
As to `COc1cc2c(c(OC)c1OC)-c1c(cc3c(c1OC)OCO3)C1OC2C(C)C1C` (centres undefined) (tested in a mixture with another compound), the TGI in the assay on OVCAR-5 ovarian, in the assay on NCI-H522 lung, in the assay on UACC-257 melanoma, in the assay with PC-3 prostate, in the assay with SK-MEL-5 melanoma and in the assay on SK-MEL-28 melanoma was more than 100 µM each time. Moreover, the TGI was more than 100 µM in the assay with A498 renal, more than 100 µM with 786-0 renal, 70.4 µM in the assay on MOLT-4 leukemia and more than 100 µM in the assay with HT29 colon.
For `CS(=O)(=O)c1cc(=O)c2ccccc2s1`, the TGI in the assay with OVCAR-5 ovarian turned out to be 22.3 µM; in the assay on NCI-H522 lung, 3.32 µM; in the assay on UACC-257 melanoma, 7.92 µM; with PC-3 prostate it was 33.4 µM; in the assay with SK-MEL-5 melanoma, 28.5 µM; with SK-MEL-28 melanoma, 7.5 µM. For the same molecule, the TGI in the assay with A498 renal is 31.4 µM; in the assay with 786-0 renal it was 13 µM; with MOLT-4 leukemia, 3.92 µM; in the assay with HT29 colon, 16.2 µM.
`CN1C(=O)c2ccccc2NC(=O)C12O[C@@H]2c1cccc(O)c1` (some centres undefined): the TGI in the assay on OVCAR-5 ovarian, in the assay with NCI-H522 lung, in the assay with UACC-257 melanoma, in the assay on PC-3 prostate, in the assay with SK-MEL-5 melanoma and in the assay with SK-MEL-28 melanoma was more than 100 µM each time. Also, the TGI with A498 renal, in the assay with 786-0 renal, in the assay with MOLT-4 leukemia and in the assay on HT29 colon was more than 100 µM in each case.
`COc1ccc(OC)c(C(=O)c2oc3ccc(Br)cc3c2N)c1`: the GI50 in the assay on OVCAR-5 ovarian is 1.56 µM; with NCI-H522 lung, 0.321 µM; in the assay with UACC-257 melanoma it was 0.392 µM; in the assay with PC-3 prostate, 0.58 µM; with SK-MEL-5 melanoma, 0.41 µM; in the assay with SK-MEL-28 melanoma, 0.61 µM. The GI50 in the assay with A498 renal was 0.0923 µM; in the assay on 786-0 renal, 0.581 µM; in the assay with MOLT-4 leukemia, 0.425 µM; in the assay on HT29 colon it was 0.326 µM. For the same molecule, the TGI in the assay on OVCAR-5 ovarian was more than 51.7 µM; in the assay with NCI-H522 lung, 4.14 µM; in the assay on UACC-257 melanoma it was 21.8 µM; in the assay with PC-3 prostate, more than 51 µM; in the assay with SK-MEL-5 melanoma, 16.9 µM; with SK-MEL-28 melanoma, 26.2 µM. For the same molecule, the TGI with A498 renal came out at 1.56 µM; with 786-0 renal, 47.4 µM; in the assay with MOLT-4 leukemia, 23.7 µM; in the assay with HT29 colon, 10.7 µM.
With `COc1cc(NS(=O)(=O)c2ccc(-c3cnc(C4CC4)o3)cc2)ccc1F`, the GI50 with OVCAR-5 ovarian was 1.15 µM; in the assay on NCI-H522 lung it was 0.316 µM; with UACC-257 melanoma, 2.43 µM; in the assay on PC-3 prostate it was 0.329 µM; in the assay on SK-MEL-5 melanoma, 0.638 µM; in the assay with SK-MEL-28 melanoma it was 1.77 µM. Moreover, the GI50 was 0.0833 µM in the assay on A498 renal, 0.694 µM in the assay with 786-0 renal, 0.564 µM with MOLT-4 leukemia and 0.268 µM with HT29 colon. Moreover, the TGI in the assay with OVCAR-5 ovarian was 29.5 µM; in the assay with NCI-H522 lung, 11.8 µM; with UACC-257 melanoma, 33.9 µM; in the assay with PC-3 prostate, 17 µM; in the assay with SK-MEL-5 melanoma, 13.1 µM; in the assay with SK-MEL-28 melanoma, 23.5 µM. Moreover, the TGI was 0.892 µM in the assay with A498 renal, 21.4 µM in the assay with 786-0 renal, more than 100 µM in the assay on MOLT-4 leukemia and 12.5 µM in the assay on HT29 colon.
On to `COc1ccccc1Cn1cc2c(c1-c1ccccc1)CCc1cnoc1-2`, for which the GI50 with OVCAR-5 ovarian is 9.82 µM; with NCI-H522 lung, 0.398 µM; in the assay with UACC-257 melanoma, 20.2 µM; in the assay with PC-3 prostate, 3.75 µM; in the assay on SK-MEL-5 melanoma, 1.93 µM; with SK-MEL-28 melanoma, 27 µM. For the same molecule, the GI50 is 1.1 µM in the assay with A498 renal, 4.04 µM in the assay with 786-0 renal, 3.42 µM with MOLT-4 leukemia and 2.02 µM in the assay with HT29 colon. Further, the TGI is more than 100 µM with OVCAR-5 ovarian; 1.99 µM in the assay with NCI-H522 lung; more than 100 µM in the assay with UACC-257 melanoma; more than 100 µM in the assay with PC-3 prostate; 11.2 µM in the assay with SK-MEL-5 melanoma; more than 100 µM in the assay with SK-MEL-28 melanoma. Also, the TGI with A498 renal is 7.18 µM; in the assay with 786-0 renal, more than 100 µM; in the assay on MOLT-4 leukemia, more than 100 µM; in the assay on HT29 colon, 7.3 µM.
